# Entries after “also recorded” stand apart in the source; their conditions may differ. Where two headings read alike, the source gives them in different places. l = locked nucleic acid (LNA); d = 2'-deoxy (DNA)
# Assays:
# SW620 cells = test: SW620 3D tumorsphere cell death / viability (CellTiter-Glo); assay type: cell-based, human; conditions: for NRTI-induced cell death: NRTI 5 μM, CellTiter-Glo
# Method: For experiments using shRNAs specifically targeting RIPK3, SW620 cells were transduced with a plko based lentiviral vector encoding either a non-targeting scrambled shRNA (shNT) (see FIG. 11A), or 3 different shRNAs targeting RIPK3 (shRNA for RIPK3 sequences: […] ID NO: 7); […] ID NO:8); […] ID NO: 9) (see FIGS. 11B-11D). Cells were grown as 3D tumorspheres in an ultra-low attachment 96 well plate and treated either with NRTIs or with DMSO. Cellular viability was analyzed using the CellTiter-Glo© Assay (PROMEGA) 5 days post-treatment. […] For experiments using the RIPK1 inhibitor necrostatin-1, SW620 cells were either transfected either with scrambled non-targeting […] ID NO: 5)) or an LNA targeting [NT]3' (SEQ ID NO: 10; *=phosphorothioate bond; +=locked nucleic acid base)) using Lipofectamine© and treated with DMSO (control) or 10 μM necrostatin-1 (FIG. 12A), or treated either with DMSO or 5 μM ddC in the presence or absence of 10 μM necrostatin-1 (FIG. 12B). Cells were seeded and grown as 3D tumorspheres in an ultra low attachment 96 well plate 1 day after transfection.
# DLD1 = DLD1 3D tumorsphere cell death / growth; assay type: cell-based, human; conditions: DLD1 (MSS) grown as 3D tumorspheres, LNA treatment
# Text: P-value by Welch's t-test. ** p=0.0063. **** p<0.0001 This finding is consistent with our other data pointing towards HERV-K as the endogenous reverse transcriptase (see Example 3).
# [1] = tested on: metastatic CRC with TP53 mutations
# [2] = tested on: colorectal cancer cell lines grown as 3D tumorspheres; test: Colorectal cancer cell line panel grown as 3D tumorspheres, viability with NRTIs, AZA, LNAs; assay type: cell-based, human; conditions: SW620, DLD1, HCT8, HCT116 cells; RIPK1 inhibition
# Method: FIGS. 21A-21B show TP53-mutant or wildtype CRC cell lines are treated with a panel of clinically approved NRTIs (5 μM) alone (FIG. 21A) or with 300 nM AZA (FIG. 21). Cell viability is measured using Cell-titer Glow assay at treatment day 7, and represented as Relative Tumoursphere (%) normalized to DMSO.
# As described above, some cancer cell lines appear to be refractory to treatment with an NRTI (e.g., the Microsatellite Stable (MSS) colorectal cancer cell lines SW620 and DLD-1, see Example 1). To determine whether activation of satellite transcription using the DNA hypomethylating agent 5′-azacytidine (Aza) could render MSS colorectal cancer cell lines sensitive to NRTI treatment, the following experiment was performed. Briefly, human colorectal cancer cell lines were grown as 3D tumorspheres in ultra-low attachment 96 well plates and treated either with DMSO or with 5 μM of NRTI in the presence of 300 nM Aza. A control sample (DMSO) without Aza or NRTI was also included. Cell viability was analyzed using the CellTiter-Glo® Assay (PROMEGA) 5 days after treatment initiation.
# To determine the generalizability of NRTI anti-neoplastic effects, a panel of 9 NRTIs encompassing analogues for each of the nucleosides on a set of 12 colorectal cancer (CRC) cell lines was tested. […]
# HCT116 cells = test: Cell swelling (necroptosis) in 2D HCT116 cells transfected with ectopic HSATII RNA; assay type: cell-based, human; conditions: HCT116 2D, transfected with in vitro synthesized HSATII RNA; NRTIs alone or in combination
# Method: Briefly, HCT116 cells were grown on standard 2D adherent cell culture plates. Cells were transfected with ectopic in vitro synthesized HSATII, and treated with either DMSO (vehicle control), or with the NRTIs ddC and d4T either alone or in combination. Cell morphology was analyzed using microscopy. Cell swelling was confirmed as an indication of necroptosis.
# HSATII RNA = test: Northern blot of HSATII RNA from HCT 116 xenografts of treated mice; assay type: in vivo; conditions: 25 mg/kg, vs vehicle (DMSO)
# Text: Previous studies have shown that HSATII RNA has a high degree of sequence similarity with viral RNA, and the presence of this RNA can trigger an innate immune response in cells similar to that which is seen in response to infection by viruses (Tanne et al. (2015) Proc. Natl. Acad. Sci. U.S.A. 112(49): 15154-9). HSATII RNA is also reverse transcribed and reintegrated into the genome, which leads to genomic expansion (Bersani et al. (2015) Proc. Natl. Acad. Sci. U.S.A. 112(49): 15148-53). This behavior is not commonly associated with mammalian RNA, but is a defining feature of retroviruses such as the human immunodeficiency virus (HIV). It is widely accepted that in retroviruses one of the functions of reverse transcription is to escape detection by the innate immune system in infected cells, as DNA is less immunogenic than RNA. For example, the reverse transcribed DNA of HIV is integrated into the host genome, making it undetectable by the immune system. Thus, it is possible that HSATII reverse transcription plays a similar functional role in cancer cells. To test this hypothesis, cancer cell lines were treated with antiretroviral nucleoside reverse transcriptase inhibitors (NRTIs) to target HSATII. The NRTI dideoxycytidine (ddC) was administered to mice having HCT 116 xenografts at a dose of 25 mg/kg. […] RNA was purified and analyzed by Northern blot. […]
compound,measurement,setting,value
"5′-+A*+T*+G*+G*A*A*T*C*A*T*C*A*T*+C*+G*+A*+A-3′ (ATGGAATCATCATCGAA; sugars from the 5' end l4 d9 l4, all phosphorothioate, methylation of C not given here) [HSATII LNA2]",cell death,"SW620 cells; SW620 (MSS) grown as 3D tumorspheres, LNA treatment",induces cell death
same,cell death,DLD1,induces cell death
"Nc1ccn([C@@H]2CS[C@H](CO)O2)c(=O)n1 [3TC, lamivudine]",dose limiting toxicity,[1]; metastatic cancer patients,lack of significant dose limiting toxicity
same,disease stability,[1]; patient 8,168 days
same,disease stability,[1]; patient 11,110 days
same,median progression free survival,[1]; patients with stable disease on single agent 3TC,159 days
same,patients with stable disease,"[1]; single agent 3TC, 24 patients",21%
"Nc1nc(NC2CC2)c2ncn([C@H]3C=C[C@@H](CO)C3)c2n1 [ABC, abacavir]",NRTI-induced cell death,SW620 cells; SW620 3D tumorspheres,cell death induced
CN1C(=O)C(Cc2c[nH]c3ccccc23)NC1=S (stereo not shown) [necrostatin-1],rescue of cell death induced by HSATII-specific LNA,"SW620 cells; SW620 3D tumorspheres, 10 μM necrostatin-1",prevented tumor cell death
same,rescue of cell death induced by ddC,"SW620 cells; SW620 3D tumorspheres, 10 μM necrostatin-1, 5 μM ddC",prevented tumor cell death
same,rescue from NRTI and AZA mediated toxicity,[2],sufficient to rescue cell lines from NRTI and AZA mediated toxicity
"Nc1ccn([C@H]2CC[C@@H](CO)O2)c(=O)n1 [ddC, 2′,3′-dideoxycytidine]",NRTI-induced cell death,SW620 cells; SW620 3D tumorspheres,tumor cell death induced
same,cell swelling (indicator of necroptosis),HCT116 cells,cellular swelling was enhanced
same,HSATII RNA signal (Northern blot),HSATII RNA,accumulation of HSATII RNA; also recorded: increase of total HSATII signal
"C=C1[C@H](CO)[C@@H](O)C[C@@H]1n1cnc2c(=O)[nH]c(N)nc21 [ETV, entecavir]",NRTI-induced cell death,SW620 cells; SW620 3D tumorspheres,cell death induced
"Cc1cn([C@H]2C=C[C@@H](CO)O2)c(=O)[nH]c1=O [d4T, stavudine]",cell swelling (indicator of necroptosis),HCT116 cells,cellular swelling was enhanced
